In article PMC2819846 (Mutation research, 2008):
Read-outs that look alike come from different tables or passages of the source.

Key:
strain TA100 = type: cell-based, Salmonella; details: TA100 liquid-suspension; for Percent survival: DMSO 100; for Rev/10^6 survivors: DMSO 0.8
Salmonella TA98 = experiment: Salmonella plate-incorporation mutagenicity assay, strain TA98, with S9 mix; type: cell-based
Salmonella TA100 = experiment: Salmonella plate-incorporation mutagenicity assay, strain TA100; type: cell-based; details: for Mutagenic potency, Revertants/µg ± S.E., TA100 / Mutagenicity call TA100: plate-incorporation, +S9
[1] = system: DNA from Salmonella TA100; experiment: Stable DNA adducts by 32P-postlabeling in DNA of treated TA100; type: cell-based; details: DMSO 0.024 ± 0.000
Salmonella TA104 = experiment: Salmonella plate-incorporation mutagenicity assay, strain TA104, with S9 mix; type: cell-based; details: for Mutagenic potency, Revertants/µg ± S.E., TA104 / Mutagenicity call TA104: plate-incorporation, +S9
[2] = system: DNA from Salmonella TA100; experiment: Abasic sites by aldehydic-site assay in DNA of treated TA100; type: cell-based; details: DMSO 5.9 ± 0.33
Salmonella = details: cited from earlier work
[3] = TA98 +S9, Test 1, 2 µg/plate, zero-dose 33/40/39
[4] = TA98 +S9, Test 1, 5 µg/plate, zero-dose 33/40/39
[5] = TA98 +S9, Test 1, 10 µg/plate, zero-dose 33/40/39
[6] = TA98 +S9, Test 1, 20 µg/plate, zero-dose 33/40/39
[7] = TA98 +S9, Test 1, 40 µg/plate, zero-dose 33/40/39
[8] = TA98 +S9, Test 1, 80 µg/plate, zero-dose 33/40/39
[9] = TA98 +S9, Test 2, 5 µg/plate, zero-dose 43/41/30
[10] = TA98 +S9, Test 3, 5 µg/plate, zero-dose 49/50/50
[11] = TA100 +S9, Test 1, 2 µg/plate, zero-dose 99/110/110
[12] = TA100 +S9, Test 1, 5 µg/plate, zero-dose 99/110/110
[13] = TA100 +S9, Test 1, 10 µg/plate, zero-dose 99/110/110
[14] = TA100 +S9, Test 1, 20 µg/plate, zero-dose 99/110/110
[15] = TA100 +S9, Test 1, 40 µg/plate, zero-dose 99/110/110
[16] = TA100 +S9, Test 1, 80 µg/plate, zero-dose 99/110/110
[17] = TA100 +S9, Test 2, 0.5 µg/plate, zero-dose 84/78/80
[18] = TA100 +S9, Test 2, 1 µg/plate, zero-dose 84/78/80
[19] = TA100 +S9, Test 2, 5 µg/plate, zero-dose 84/78/80
[20] = TA100 +S9, Test 3, 0.5 µg/plate, zero-dose 127/118/125
[21] = TA100 +S9, Test 3, 1 µg/plate, zero-dose 127/118/125
[22] = TA100 +S9, Test 3, 5 µg/plate, zero-dose 127/118/125
[23] = TA104 +S9, Test 3, 0.5 µg/plate, zero-dose 402/395/336
[24] = TA104 +S9, Test 3, 1 µg/plate, zero-dose 402/395/336
[25] = TA104 +S9, Test 3, 5 µg/plate, zero-dose 402/395/336

O[C@@H]1C=Cc2c(ccc3ccc4ccccc4c23)[C@H]1O (racemic) [B[c]P 3,4-diol, (± )-trans-3,4-Dihydrobenzo[c]phenanthrene 3,4-diol]
Percent survival (strain TA100; 2 µg/ml): 56% | Fold increase in mutant frequency relative to DMSO-treated cells (strain TA100; 5 µg/ml): 23.4 fold | Rev/10^6 survivors (strain TA100; 5 µg/ml): 18.7 Rev/10^6 survivors | Percent survival (strain TA100; 5 µg/ml): 20% | Rev/plate (Salmonella TA98; [3]): 47 rev/plate | Rev/plate (Salmonella TA98; [4]): 100 rev/plate | Rev/plate (Salmonella TA98; [5]): 120 rev/plate | Rev/plate (Salmonella TA98; [6]): 226 rev/plate | Rev/plate (Salmonella TA98; [7]): 303 rev/plate | Rev/plate (Salmonella TA98; [8]): 417 rev/plate | Rev/plate (Salmonella TA98; [9]): 120/112 | Rev/plate (Salmonella TA98; TA98 +S9, Test 2, 10 µg/plate, zero-dose 43/41/30): 180/199 | Rev/plate (Salmonella TA98; TA98 +S9, Test 2, 20 µg/plate, zero-dose 43/41/30): 310/260 | Rev/plate (Salmonella TA98; TA98 +S9, Test 2, 40 µg/plate, zero-dose 43/41/30): 460/414 | Rev/plate (Salmonella TA98; TA98 +S9, Test 2, 80 µg/plate, zero-dose 43/41/30): 492/423 | Rev/plate (Salmonella TA98; [10]): 145/173 | Rev/plate (Salmonella TA98; TA98 +S9, Test 3, 10 µg/plate, zero-dose 49/50/50): 238/242 | Rev/plate (Salmonella TA98; TA98 +S9, Test 3, 20 µg/plate, zero-dose 49/50/50): 350/328 | Rev/plate (Salmonella TA98; TA98 +S9, Test 3, 40 µg/plate, zero-dose 49/50/50): 458/504 | Rev/plate (Salmonella TA98; TA98 +S9, Test 3, 80 µg/plate, zero-dose 49/50/50): 509/597 | Mutagenic potency, Revertants/µg ± S.E., TA98 (Salmonella TA98; plate-incorporation, +S9): 11.1 ± 3.0 rev/µg | Mutagenicity call TA98 (Salmonella TA98; plate-incorporation, +S9): (+) (Called mutagenic (+) based on showing reproducible, dose-related increases in rev/plate that reached or exceeded 2-fold relative to zero-dose controls) | Rev/plate (Salmonella TA100; [11]): 694 rev/plate | Rev/plate (Salmonella TA100; [12]): 1002 rev/plate | Rev/plate (Salmonella TA100; [13]): 1067 rev/plate | Rev/plate (Salmonella TA100; [14]): 942 rev/plate | Rev/plate (Salmonella TA100; [15]): 381 rev/plate | Rev/plate (Salmonella TA100; [16]): 100 rev/plate | Rev/plate (Salmonella TA100; [17]): 151/162 | Rev/plate (Salmonella TA100; [18]): 244/241 | Rev/plate (Salmonella TA100; TA100 +S9, Test 2, 2.5 µg/plate, zero-dose 84/78/80): 533/604 | Rev/plate (Salmonella TA100; [19]): 598/153 | Rev/plate (Salmonella TA100; [20]): 335/357 | Rev/plate (Salmonella TA100; [21]): 474/494 | Rev/plate (Salmonella TA100; TA100 +S9, Test 3, 2.5 µg/plate, zero-dose 127/118/125): 848/945 | Rev/plate (Salmonella TA100; [22]): 1216/1218 | Rev/plate (Salmonella TA100; TA100 +S9, Test 4, 0.5 µg/plate, zero-dose 112/140/115): 328/304 | Rev/plate (Salmonella TA100; TA100 +S9, Test 4, 1 µg/plate, zero-dose 112/140/115): 613/577 | Rev/plate (Salmonella TA100; TA100 +S9, Test 4, 2.5 µg/plate, zero-dose 112/140/115): 938/941 | Rev/plate (Salmonella TA100; TA100 +S9, Test 4, 5 µg/plate, zero-dose 112/140/115): 1117/1140 | Mutagenic potency, Revertants/µg ± S.E., TA100 (Salmonella TA100): 268 ± 46 rev/µg | Mutagenicity call TA100 (Salmonella TA100): (+) (Called mutagenic (+) based on showing reproducible, dose-related increases in rev/plate that reached or exceeded 2-fold relative to zero-dose controls) | Stable adducts/10^8 nucleotides ± S.E ([1]; TA100, 2 µg/ml): 5.900 ± 0.230 adducts/10^8 nucleotides | Stable adducts/10^8 nucleotides ± S.E ([1]; TA100, 5 µg/ml): 4.500 ± 0.034 adducts/10^8 nucleotides | Rev/plate (Salmonella TA104; TA104 +S9, Test 1, 0.5 µg/plate, zero-dose 379/400/370): 770/707 | Rev/plate (Salmonella TA104; TA104 +S9, Test 1, 1 µg/plate, zero-dose 379/400/370): 1007/1137 | Rev/plate (Salmonella TA104; TA104 +S9, Test 1, 2.5 µg/plate, zero-dose 379/400/370): 1618/1616 | Rev/plate (Salmonella TA104; TA104 +S9, Test 1, 5 µg/plate, zero-dose 379/400/370): 1925/2036 | Rev/plate (Salmonella TA104; [23]): 663/615 | Rev/plate (Salmonella TA104; [24]): 923/920 | Rev/plate (Salmonella TA104; TA104 +S9, Test 3, 2.5 µg/plate, zero-dose 402/395/336): 1368/1509 | Rev/plate (Salmonella TA104; [25]): 1781/1775 | Rev/plate (Salmonella TA104; TA104 +S9, Test 4, 0.5 µg/plate, zero-dose 482/455/462): 655/635 | Rev/plate (Salmonella TA104; TA104 +S9, Test 4, 1 µg/plate, zero-dose 482/455/462): 913/888 | Rev/plate (Salmonella TA104; TA104 +S9, Test 4, 2.5 µg/plate, zero-dose 482/455/462): 1375/1312 | Rev/plate (Salmonella TA104; TA104 +S9, Test 4, 5 µg/plate, zero-dose 482/455/462): 1807/1818 | Mutagenic potency, Revertants/µg ± S.E., TA104 (Salmonella TA104): 552 ± 62 rev/µg | Mutagenicity call TA104 (Salmonella TA104): (+) (Called mutagenic (+) based on showing reproducible, dose-related increases in rev/plate that reached or exceeded 2-fold relative to zero-dose controls) | Abasic sites/10^5 nucleotides ± S.E ([2]; TA100, 2 µg/ml): 4.2 ± 0.16 sites/10^5 nucleotides | Abasic sites/10^5 nucleotides ± S.E ([2]; TA100, 5 µg/ml): 5.3 ± 0.27 sites/10^5 nucleotides | Mutagenicity in Salmonella (early studies) (Salmonella): mutagenic

c1ccc2c(c1)ccc1ccc3ccccc3c12 [B[c]P, Benzo[c]phenanthrene]
Fold increase in mutant frequency relative to DMSO-treated cells (strain TA100; 20 µg/ml): 3.9 fold | Rev/10^6 survivors (strain TA100; 20 µg/ml): 3.1 Rev/10^6 survivors | Percent survival (strain TA100; 20 µg/ml): 71% | Rev/plate (Salmonella TA98; [3]): 37 rev/plate | Rev/plate (Salmonella TA98; [4]): 43 rev/plate | Rev/plate (Salmonella TA98; [5]): 57 rev/plate | Rev/plate (Salmonella TA98; [6]): 60 rev/plate | Rev/plate (Salmonella TA98; [7]): 50 rev/plate | Rev/plate (Salmonella TA98; [8]): 35 rev/plate | Rev/plate (Salmonella TA98; TA98 +S9, Test 2, 0.5 µg/plate, zero-dose 43/41/30): 44/36 | Rev/plate (Salmonella TA98; TA98 +S9, Test 2, 1 µg/plate, zero-dose 43/41/30): 41/35 | Rev/plate (Salmonella TA98; TA98 +S9, Test 2, 2 µg/plate, zero-dose 43/41/30): 38/37 | Rev/plate (Salmonella TA98; [9]): 56/50 | Rev/plate (Salmonella TA98; TA98 +S9, Test 3, 0.5 µg/plate, zero-dose 49/50/50): 49/36 | Rev/plate (Salmonella TA98; TA98 +S9, Test 3, 1 µg/plate, zero-dose 49/50/50): 52/54 | Rev/plate (Salmonella TA98; TA98 +S9, Test 3, 2 µg/plate, zero-dose 49/50/50): 60/50 | Rev/plate (Salmonella TA98; [10]): 87/61 | Mutagenic potency, Revertants/µg ± S.E., TA98 (Salmonella TA98; plate-incorporation, +S9): 1.2 ± 1.3 rev/µg | Rev/plate (Salmonella TA100; [11]): 251 rev/plate | Rev/plate (Salmonella TA100; [12]): 388 rev/plate | Rev/plate (Salmonella TA100; [13]): 467 rev/plate | Rev/plate (Salmonella TA100; [14]): 503 rev/plate | Rev/plate (Salmonella TA100; [15]): 494 rev/plate | Rev/plate (Salmonella TA100; [16]): 354 rev/plate | Rev/plate (Salmonella TA100; [17]): 97/85 | Rev/plate (Salmonella TA100; [18]): 114/78 | Rev/plate (Salmonella TA100; TA100 +S9, Test 2, 2 µg/plate, zero-dose 84/78/80): 117/143 | Rev/plate (Salmonella TA100; [19]): 300/204 | Rev/plate (Salmonella TA100; [20]): 180/190 | Rev/plate (Salmonella TA100; [21]): 250/217 | Rev/plate (Salmonella TA100; TA100 +S9, Test 3, 2 µg/plate, zero-dose 127/118/125): 300/303 | Rev/plate (Salmonella TA100; [22]): 510/499 | Mutagenic potency, Revertants/µg ± S.E., TA100 (Salmonella TA100): 56.4 ± 12.1 rev/µg | Mutagenicity call TA100 (Salmonella TA100): (+) (Called mutagenic (+) based on showing reproducible, dose-related increases in rev/plate that reached or exceeded 2-fold relative to zero-dose controls) | Stable adducts/10^8 nucleotides ± S.E ([1]; TA100, 20 µg/ml): 1.600 ± 0.040 adducts/10^8 nucleotides | Rev/plate (Salmonella TA104; TA104 +S9, Test 2, 0.5 µg/plate, zero-dose 276/260/270): 432/407 | Rev/plate (Salmonella TA104; TA104 +S9, Test 2, 1 µg/plate, zero-dose 276/260/270): 504/506 | Rev/plate (Salmonella TA104; TA104 +S9, Test 2, 2 µg/plate, zero-dose 276/260/270): 570/609 | Rev/plate (Salmonella TA104; TA104 +S9, Test 2, 5 µg/plate, zero-dose 276/260/270): 753/894 | Rev/plate (Salmonella TA104; [23]): 523/486 | Rev/plate (Salmonella TA104; [24]): 636/581 | Rev/plate (Salmonella TA104; TA104 +S9, Test 3, 2 µg/plate, zero-dose 402/395/336): 588/660 | Rev/plate (Salmonella TA104; [25]): 850/824 | Mutagenic potency, Revertants/µg ± S.E., TA104 (Salmonella TA104): 241 ± 25 rev/µg | Mutagenicity call TA104 (Salmonella TA104): (+) (Called mutagenic (+) based on showing reproducible, dose-related increases in rev/plate that reached or exceeded 2-fold relative to zero-dose controls) | Abasic sites/10^5 nucleotides ± S.E ([2]; TA100, 20 µg/ml): 3.3 ± 0.12 sites/10^5 nucleotides | Mutagenicity in Salmonella (early studies) (Salmonella): mutagenic

O[C@H]1C=Cc2ccc3c(sc4ccccc43)c2[C@@H]1O [[2,1]BNT-1,2-diol]
Mutagenicity in Salmonella TA100 (Salmonella; TA100): not mutagenic
